Test results published in patent US20250223301A1, “KINASE INHIBITORS, PREPARATION METHODS AND USES THEREOF” (InventisBio Co., Ltd., priority 2022, published 2025).
pEC50, pIC50: −log10 of the molar value.

Legend:
[1] = system: whole blood from male C57BL6 mice; experiment: Mouse whole blood IFN-gamma assay; assay type: cell-based; conditions: anti-mouse CD3/CD28 0.6 ug/mL, 20 hours
Experimental: The whole blood from male C57BL6 mice (6-8 weeks old, Beijing Vital River Laboratory Animal Technology Co., Ltd.) was collected, pooled and dispensed at 200 uL per well in a 96-well plate. The blood was treated with compounds for one hour at 37° C. in a humidified 5% CO2 incubator. The blood was then stimulated with anti-mouse CD3 and anti-mouse CD28 antibody (BioLegend Cat #100340, #102116) at a final concentration of 0.6 ug/mL for 20 hours at 37° C. in a humidified 5% CO2 incubator. The blood was spun down, IFN-gamma in the supernatants was measured using ELISA kit (Excellbio Cat #EM002-96, #EM007-96) according the manufacture's instruction.

[2] = system: Jurkat cells; experiment: Jurkat IL-2 assay; assay type: cell-based; conditions: Homo sapiens, anti-CD3/CD28 stimulation overnight, IL-2 level
Outline: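 Cells in RPMI-1640 with 10% FBS received compound solution (5 uM to 2.3 nM, 8 points, 3-fold dilution) for 60 minutes at 37° C. They were then stimulated overnight at 37° C. with anti-CD3/CD28 antibody. IL-2 in the supernatant was quantified by immunoassay kit and plotted against log compound concentration.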

[3] = Human microsomal clearance assay; assay type: in vitro ADME; conditions: pH 7.4; for CLint scaled at 1 μM: human, liver microsomes; for half-life at 1 μM: human liver microsomes 0.5 mg/mL, 1 uM compound
Experimental: This study aimed to assess the metabolic stability of a compound in human liver microsomes using a microsomal clearance assay.
A mixture containing 100 mM potassium phosphate, pH 7.4, 0.5 mg/mL liver microsomes, 2 mM NADPH, and 1 μM compound were prepared and added to 96-well plate. The plates were then incubated at 37 ? for different time points (0, 5, 15, 30, 45 minutes) and the reaction was stopped with acetonitrile solution containing an internal standard. The samples were then analyzed by LC/MS/MS to determine how much of the compound remained at each time point. The elimination rate constant and half-life were calculated from the data, and the in vitro intrinsic clearance (CLint) was determined as follows: […]

[4] = system: CT26 murine colorectal adenocarcinoma cells; experiment: In vivo efficacy in CT26 syngeneic mouse tumor model; conditions: CT26, BALB/c mice; 3 mg/kg PO QD
Experimental: Murine colorectal adenocarcinoma cells CT26 (purchased from ATCC) were cultured in RPMI 1640 medium with 10% FBS. For tumor implantation, 6-8 weeks old BALB/c female mice (Beijing Vital River Laboratory Animal Technology Co., Ltd.) were given a subcutaneous injection of CT26 cell (1×10^7 cells/mL) in 0.1 mL suspension into the right flank. Once tumors grew to a volume of 50-100 mm3, mice were randomized into different groups and treatment was initiated. Mice were treated orally once per day (PO, QD) with DGK inhibitors (3 mg/kg) or vehicle control. Anti-PD-1 antibody (BioXcell, Cat #BE0273), anti-CTLA4 antibody (BioXcell, Cat #BE0164) were diluted with PBS for dosing at 10 mg/kg or 5 mg/kg, respectively. Antibody was administrated via intraperitoneal injection, twice per week. Tumor volume and body weight of mice were recorded twice per week.
All animals were housed in a room maintained at 23:3° C., 65%-75% humidity, with a controlled 12 h light-dark cycle for 5-7 days before experiments. Water and commercial laboratory complete food for mice were provided in the cage.

[5] = system: PBMC; experiment: Human PBMC IL-2 assay; assay type: cell-based; conditions: anti-CD3/CD28 stimulation overnight, IL-2 level
Outline: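 Healthy-donor frozen PBMC were thawed, rested 4 h at 37 °C and plated at ~200,000 cells/well. Cells were preincubated 60 min at 37 °C with compound solution (10 uM to 0.6 nM, 8 points, 4-fold, as added), then stimulated overnight with anti-CD3/CD28. Supernatant IL-2 was quantified by immunoassay kit and plotted against log compound concentration.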

[6] = system: MC-38 murine colon adenocarcinoma cells; experiment: In vivo efficacy in MC38 syngeneic mouse tumor model; conditions: MC38, C57BL/6 mice; compound 67 0.6 mg/kg PO QD in combination with anti-PD-1 2 mg/kg i.p. twice per week
Experimental: Murine colon adenocarcinoma cells MC-38 were obtained from American Type Culture Collection (ATCC) and cultured in RPMI 1640 media containing 10% fetal bovine serum (FBS) at 37° C. in a humidified 5% CO2 incubator. Female C57BL/6 mice (20 2 g, 6-8 weeks old) were purchased from SPF Biotechnology Co., Ltd. (Beijing, China). MC-38 cells were collected from flask and suspended in PBS. Suspension of 1×10^6 cells in 0.1 mL culture media without FBS was injected subcutaneously into animal armpits. Once the tumor reached 100-150 mm^3, the mice were randomized into different groups and treatment was initiated. Mice were treated orally once per day (PO, QD) with compound 67 (0.6 mg/kg) or vehicle control. Anti-PD-1 antibody (BioXcell, Cat #BE0273) was diluted with PBS for dosing at 2 mg/kg and was administrated via intraperitoneal injection, twice per week. Tumor volume and body weight of mice were recorded twice per week.
All animals were housed in a room maintained at 23±3° C., 65%-75% humidity, with a controlled 12 h light-dark cycle for 5-7 days before experiments. Water and commercial laboratory complete food for mice were provided in the cage.
Tumor volume was calculated by measuring two perpendicular diameters using the following formula: (L×W^2)/2, in which L and W refer to the length and width tumor diameter, respectively.

[7] = target: DGKz (Homo sapiens (Human), UniProt Q13574); experiment: DGK ADP-Glo kinase assay (DGKz); assay type: biochemical; conditions: 5 nM DGKz, 15 uM ATP
Experimental: Luminescence was recorded using an Tecan SPARK microplate reader.

[8] = target: DGKa (Homo sapiens (Human), UniProt P23743); experiment: biochemical;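 note: biochemical DGK kinase assay, ADP-Glo luminescence from ADP made by phosphorylating 1,2-dioleoyl-sn-glycerol, 20 min compound preincubation then 40 min reaction at 25 °C, 1% DMSO control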
Sequence of DGKa (P23743 whole entry): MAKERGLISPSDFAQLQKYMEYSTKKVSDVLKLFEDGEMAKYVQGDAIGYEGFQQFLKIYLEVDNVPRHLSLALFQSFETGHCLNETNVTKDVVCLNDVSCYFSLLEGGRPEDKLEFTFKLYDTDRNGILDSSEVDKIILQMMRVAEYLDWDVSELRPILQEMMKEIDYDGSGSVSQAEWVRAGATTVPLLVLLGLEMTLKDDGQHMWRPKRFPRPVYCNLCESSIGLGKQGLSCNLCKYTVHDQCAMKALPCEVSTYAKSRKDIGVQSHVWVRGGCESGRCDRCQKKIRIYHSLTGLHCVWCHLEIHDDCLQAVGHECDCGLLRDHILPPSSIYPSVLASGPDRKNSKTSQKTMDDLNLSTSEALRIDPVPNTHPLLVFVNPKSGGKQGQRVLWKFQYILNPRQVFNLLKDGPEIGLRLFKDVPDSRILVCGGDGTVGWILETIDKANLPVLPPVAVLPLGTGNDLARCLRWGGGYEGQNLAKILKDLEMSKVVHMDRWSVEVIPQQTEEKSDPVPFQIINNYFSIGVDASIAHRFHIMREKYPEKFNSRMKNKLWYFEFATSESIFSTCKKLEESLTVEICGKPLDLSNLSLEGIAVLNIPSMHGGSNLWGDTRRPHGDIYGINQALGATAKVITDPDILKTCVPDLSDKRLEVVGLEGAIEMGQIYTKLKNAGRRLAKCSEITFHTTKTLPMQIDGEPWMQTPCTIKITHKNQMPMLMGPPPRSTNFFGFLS
Experimental: The DGKa and DGKz kinase assays were performed using Promega ADP-Glo kit (Promega, Cat #V9102). One microliter test compound was added to a 384-well plate. Reactions were performed in a 5 uL volume by adding 2 uL mixture of DGK enzyme and ATP in assay buffer (50 mM MOPS pH 7.5, 100 mM NaCl, 10 mM MgCl2, 1 mM CaCl2, 0.0025% BSA, and 1 mM DTT). […] The enzyme solution was incubated with test compound at 25 ? for 20 min. […] The reaction was initiated by the addition of 2 uL of substrate solution (7 uM 1.2-dioleoyl-sn-glycerol, 5 mM octyl-b-D-glucopyranoside) in the 5 uL assay volume. The resulting mixture was incubated at 25° C. for 40 minutes. Next, 5 uL of ADP-Glo-reagent was added to the plate and incubated for 40 minutes. Then 10 uL of kinase detection reagent was added and incubated for 30 minutes. Luminescence was recorded using an Tecan SPARK microplate reader. 1% DMSO vehicle was used as control and no enzyme well was used as blank well.

Sequence of DGKz (Q13574 whole entry): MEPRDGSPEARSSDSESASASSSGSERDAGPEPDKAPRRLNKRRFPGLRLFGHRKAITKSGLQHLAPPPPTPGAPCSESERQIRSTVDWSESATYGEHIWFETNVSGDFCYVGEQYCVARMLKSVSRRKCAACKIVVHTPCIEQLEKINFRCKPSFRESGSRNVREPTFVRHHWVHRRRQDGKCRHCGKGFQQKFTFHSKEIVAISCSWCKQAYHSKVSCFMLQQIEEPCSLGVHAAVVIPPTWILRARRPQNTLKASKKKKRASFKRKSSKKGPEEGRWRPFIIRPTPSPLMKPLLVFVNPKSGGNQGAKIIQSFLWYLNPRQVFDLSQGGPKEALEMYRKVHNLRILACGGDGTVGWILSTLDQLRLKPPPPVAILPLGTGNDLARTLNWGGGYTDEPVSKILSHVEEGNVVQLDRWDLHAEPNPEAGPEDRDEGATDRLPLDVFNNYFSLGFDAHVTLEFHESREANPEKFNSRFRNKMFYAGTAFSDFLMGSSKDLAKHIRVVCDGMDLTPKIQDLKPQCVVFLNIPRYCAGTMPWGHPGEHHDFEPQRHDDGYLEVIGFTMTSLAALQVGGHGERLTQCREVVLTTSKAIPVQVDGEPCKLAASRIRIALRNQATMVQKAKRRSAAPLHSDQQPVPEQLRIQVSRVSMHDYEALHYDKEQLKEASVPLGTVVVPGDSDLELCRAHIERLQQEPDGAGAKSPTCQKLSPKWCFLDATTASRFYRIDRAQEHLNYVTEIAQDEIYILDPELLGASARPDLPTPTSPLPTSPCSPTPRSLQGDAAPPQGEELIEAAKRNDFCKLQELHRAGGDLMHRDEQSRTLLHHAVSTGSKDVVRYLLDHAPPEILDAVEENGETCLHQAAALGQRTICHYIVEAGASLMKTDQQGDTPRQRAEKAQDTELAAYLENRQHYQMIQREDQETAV

SMILES	pEC50 [1]	pEC50 [2]	CLint scaled at 1 μM [3]	half-life at 1 μM [3]	Tumor growth [4]	pEC50 [5]	Tumor inhibition activity [6]	pIC50 [7]	pIC50 [8]
CC[C@@H]1CN2c3c(c(=O)n(C)c4ccc(C#N)nc34)OC[C@@H]2CN1[C@@H](CC)c1ccc(Cl)c(Cl)c1 (stereo in doubt) [Compound 250]	6.84	7.49	12.3 mL/min/kg	142 min	inhibit tumor growth	7.80			
CC[C@@H]1CN2c3c(c(=O)n(C)c4ccc(C#N)nc34)OC[C@@H]2CN1[C@@H](CC)c1ccc(C(F)(F)F)cc1 [Compound 67]	6.99	7.31	7.5 mL/min/kg	233 min		7.40	significantly better tumor inhibition activity than either of the single agents	7.80	8.40
